Where a SMILES comes first, the peptide text is derived from it.
Test system: not listed separately
Assay: Apparent permeability coefficient (Papp) (Caco-2 cell monolayer)
Type: ADME, cell-based
Details: human

SMILES	Papp
CC(C)NCC(O)COc1cccc2[nH]ccc12 (stereo unspecified) [PINDOLOL]	36 ×10⁻⁶ cm/s
CC(=O)Nc1ccc(OCC(O)CNC(C)C)cc1 (stereo unspecified) [PRACTOLOL]	1.8 ×10⁻⁶ cm/s
OC[C@H]1O[C@@H](O[C@@H]2[C@@H](CO)O[C@](O)(CO)[C@H]2O)[C@H](O)[C@@H](O)[C@H]1O [LACTULOSE]	0.3 ×10⁻⁶ cm/s
O=C(O)c1cc(/N=N/c2ccc(S(=O)(=O)Nc3ccccn3)cc2)ccc1O [SULFASALAZINE]	0.16 ×10⁻⁶ cm/s
Cc1ccccc1N1C(=O)c2cc(S(N)(=O)=O)c(Cl)cc2NC1C (stereo unspecified) [METOLAZONE]	6.2 ×10⁻⁶ cm/s
Cc1cc(=O)n(-c2ccccc2)n1C [ANTIPYRINE]	77 ×10⁻⁶ cm/s
C[C@H](NC(=O)[C@@H](N)Cc1ccc(O)cc1)C(=O)N[C@@H](Cc1ccccc1)C(=O)N[C@@H](Cc1ccccc1)C(N)=O (H-YAFF-NH2)	0.04 ×10⁻⁶ cm/s
CCCc1nn(C)c2c(=O)[nH]c(-c3cc(S(=O)(=O)N4CCN(C)CC4)ccc3OCC)nc12	48 ×10⁻⁶ cm/s
O=C(O)P(=O)(O)O [FOSCARNET]	0.045 ×10⁻⁶ cm/s
C=CCc1ccccc1OCC(O)CNC(C)C (stereo unspecified) [ALPRENOLOL]	88 ×10⁻⁶ cm/s
C=CCOc1ccccc1OCC(O)CNC(C)C (stereo unspecified) [OXPRENOLOL]	61 ×10⁻⁶ cm/s
COCCc1ccc(OCC(O)CNC(C)C)cc1 (stereo unspecified) [METOPROLOL]	64 ×10⁻⁶ cm/s
CCN1CCCC1CNC(=O)c1cc(S(N)(=O)=O)ccc1OC (stereo unspecified) [SULPIRIDE]	0.23 ×10⁻⁶ cm/s
NC(=O)[C@H](Cc1ccccc1)NC(=O)[C@H](Cc1ccccc1)NC(=O)[C@H](CCCN=C(N)N)NC(=O)[C@@H](N)Cc1ccc(O)cc1 (H-YRFF-NH2)	0.037 ×10⁻⁶ cm/s
OC[C@@H](O)[C@@H](O)[C@H](O)[C@H](O)CO [MANNITOL]	0.11 ×10⁻⁶ cm/s
N=C(N)NC(=O)c1nc(Cl)c(N)nc1N [AMILORIDE]	0.56 ×10⁻⁶ cm/s
CN/C(=N/CCSCc1nc[nH]c1C)NC#N [CIMETIDINE]	1.23 ×10⁻⁶ cm/s
OC[C@H]1O[C@H](OC[C@H]2O[C@H](O[C@]3(CO)O[C@H](CO)[C@@H](O)[C@@H]3O)[C@H](O)[C@@H](O)[C@@H]2O)[C@H](O)[C@@H](O)[C@H]1O [RAFFINOSE]	0.051 ×10⁻⁶ cm/s

Test system: not listed separately
Assay: Cellular permeability (Pc) (Caco-2 cell monolayer)
Type: ADME
Details: human, read-out: Pc

SMILES	Papp
OC[C@H]1O[C@@H](O[C@@H]2[C@@H](CO)O[C@](O)(CO)[C@H]2O)[C@H](O)[C@@H](O)[C@H]1O [LACTULOSE]	0.27 ×10⁻⁶ cm/s
O=C(O)c1cc(/N=N/c2ccc(S(=O)(=O)Nc3ccccn3)cc2)ccc1O [SULFASALAZINE]	0.16 ×10⁻⁶ cm/s
Cc1ccccc1N1C(=O)c2cc(S(N)(=O)=O)c(Cl)cc2NC1C (stereo unspecified) [METOLAZONE]	6.1 ×10⁻⁶ cm/s
Cc1cc(=O)n(-c2ccccc2)n1C [ANTIPYRINE]	215 ×10⁻⁶ cm/s
C[C@H](NC(=O)[C@@H](N)Cc1ccc(O)cc1)C(=O)N[C@@H](Cc1ccccc1)C(=O)N[C@@H](Cc1ccccc1)C(N)=O (H-YAFF-NH2)	0.022 ×10⁻⁶ cm/s
CCCc1nn(C)c2c(=O)[nH]c(-c3cc(S(=O)(=O)N4CCN(C)CC4)ccc3OCC)nc12	87 ×10⁻⁶ cm/s
O=C(O)P(=O)(O)O [FOSCARNET]	0.05 ×10⁻⁶ cm/s
CCN1CCCC1CNC(=O)c1cc(S(N)(=O)=O)ccc1OC (stereo unspecified) [SULPIRIDE]	0.39 ×10⁻⁶ cm/s
NC(=O)[C@H](Cc1ccccc1)NC(=O)[C@H](Cc1ccccc1)NC(=O)[C@H](CCCN=C(N)N)NC(=O)[C@@H](N)Cc1ccc(O)cc1 (H-YRFF-NH2)	0.023 ×10⁻⁶ cm/s
OC[C@@H](O)[C@@H](O)[C@H](O)[C@H](O)CO [MANNITOL]	0.19 ×10⁻⁶ cm/s
N=C(N)NC(=O)c1nc(Cl)c(N)nc1N [AMILORIDE]	0.78 ×10⁻⁶ cm/s
CN/C(=N/CCSCc1nc[nH]c1C)NC#N [CIMETIDINE]	1.2 ×10⁻⁶ cm/s
OC[C@H]1O[C@H](OC[C@H]2O[C@H](O[C@]3(CO)O[C@H](CO)[C@@H](O)[C@@H]3O)[C@H](O)[C@@H](O)[C@@H]2O)[C@H](O)[C@@H](O)[C@H]1O [RAFFINOSE]	0.047 ×10⁻⁶ cm/s

Species: Homo sapiens
Assay: Ratio of [(apical to basal)/(basal to apical)] (Caco-2 cell monolayer)
Type: ADME
Details: not given

SMILES	Ratio
CC(C)NCC(O)COc1cccc2[nH]ccc12 (stereo unspecified) [PINDOLOL]	~ 1
CC(=O)Nc1ccc(OCC(O)CNC(C)C)cc1 (stereo unspecified) [PRACTOLOL]	~ 1
OC[C@H]1O[C@@H](O[C@@H]2[C@@H](CO)O[C@](O)(CO)[C@H]2O)[C@H](O)[C@@H](O)[C@H]1O [LACTULOSE]	1.4
O=C(O)c1cc(/N=N/c2ccc(S(=O)(=O)Nc3ccccn3)cc2)ccc1O [SULFASALAZINE]	0.087
Cc1ccccc1N1C(=O)c2cc(S(N)(=O)=O)c(Cl)cc2NC1C (stereo unspecified) [METOLAZONE]	0.64
Cc1cc(=O)n(-c2ccccc2)n1C [ANTIPYRINE]	1.1
CCCc1nn(C)c2c(=O)[nH]c(-c3cc(S(=O)(=O)N4CCN(C)CC4)ccc3OCC)nc12	0.83
O=C(O)P(=O)(O)O [FOSCARNET]	0.65
C=CCc1ccccc1OCC(O)CNC(C)C (stereo unspecified) [ALPRENOLOL]	~ 1
C=CCOc1ccccc1OCC(O)CNC(C)C (stereo unspecified) [OXPRENOLOL]	~ 1
COCCc1ccc(OCC(O)CNC(C)C)cc1 (stereo unspecified) [METOPROLOL]	1
NC(=O)[C@H](Cc1ccccc1)NC(=O)[C@H](Cc1ccccc1)NC(=O)[C@H](CCCN=C(N)N)NC(=O)[C@@H](N)Cc1ccc(O)cc1 (H-YRFF-NH2)	0.41
OC[C@@H](O)[C@@H](O)[C@H](O)[C@H](O)CO [MANNITOL]	0.89
CN/C(=N/CCSCc1nc[nH]c1C)NC#N [CIMETIDINE]	1.8
OC[C@H]1O[C@H](OC[C@H]2O[C@H](O[C@]3(CO)O[C@H](CO)[C@@H](O)[C@@H]3O)[C@H](O)[C@@H](O)[C@@H]2O)[C@H](O)[C@@H](O)[C@H]1O [RAFFINOSE]	1.2

From ChEMBL document CHEMBL1134498, “Experimental and computational screening models for the prediction of intestinal drug absorption” (J Med Chem, 2001)
